Here are results for ten molecules from patent US6613883B1, “Screening assays for compounds that cause apoptosis and related compounds” (The United States of America as represented by the …, priority 1994, dated 2003).

One data set concerns the target T1, binding of p53 to XPB (Homo sapiens, UniProt P04637).
T1 construct: was used for in vitro translation of full length XPB protein; made in house; host or cells: GST-p53-WT: Escherichia coli; XPB: cell-free in vitro transcription/translation (Promega)
Briefly: Competitive inhibition by peptides of XPB binding to GST-p53-WT. Conditions: peptide preincubated with GST-p53-WT 30 min on ice, 12-596 nM. Here is the method:
FIG. 4. Peptides corresponding to helicase motif III of XPB and the C-terminus of p53 prevent XPB from binding to GST-p53. Four different synthetic peptides were preincubated with 2 μg GST-p53WT for 30 minutes on ice before the addition of ^35S-labeled, in vitro-translated XPB for 60 min at RT. Peptide #464 corresponds to residues 464-478 of XPB (lanes 2-4; 12, 120, and 596 nM), peptide #479 corresponds to residues 479-493 of XPB (lanes 5-7; 12, 116, and 578 nM), peptide #99 corresponds to residues 100-115 of HBX (lanes 8-9; 111 and 554 nM), and peptide #p53cp corresponds to residues 367-387 of p53 (lanes 11-12; 85 and 424 nM).
(§1) The helicase motif III in XPB and the C-terminal region of p53 are both important regions that are involved in the binding of p53 to XPB. […] Incubation conditions for the binding assays and analysis of binding was then carried out as described in Example 2 herein.

Data set [1] relates to normal primary human fibroblasts (C5RO). The experiment in a line: Apoptosis after microinjection of p53 expression vectors. It is filed as cell-based. As to conditions: for effect of coinjected mutant p53 on induction of apoptosis by wt p53: expression vectors for wt and mutant p53 coinjected into normal human fibroblasts; for % apoptotic cells: normal fibroblasts (C5RO), of p53 positive cells; for % apoptotic cells / p53 localization (% cells) both / p53 localization (% cells) cytoplasmic / p53 localization (% cells) nuclei: 24 hr after microinjection; for p53 localization (% cells) both / p53 localization (% cells) cytoplasmic / p53 localization (% cells) nuclei: normal fibroblasts.

The target of data set [2] is T2, XPD helicase within BTF2-TFIIH (Homo sapiens, UniProt P18074).
T2 construct: XPD and XPB helicase activity within the native BTF2-TFIIH complex; endogenous in cells; host or cells: HeLa cell nuclear extract (HAP fraction)
Briefly: BTF2-TFIIH helicase assay, 5'→3' (XPD). It is filed as biochemical. Conditions: 6, 18, 120 ng wild-type p53 or 7, 21, 140 ng p53-273H.

Data set [3] addresses T3, XPB helicase within BTF2-TFIIH (Homo sapiens, UniProt P19447).
T3 construct: XPD and XPB helicase activity within the native BTF2-TFIIH complex; endogenous in cells; host or cells: HeLa cell nuclear extract (HAP fraction)
The experiment in a line: BTF2-TFIIH helicase assay, 3'→5' (XPB). Format: biochemical. Conditions: 6, 18, 120 ng wild-type p53 or 7, 21, 140 ng p53-273H.

In data set [4] the test system is XPB binding to mutant p53. The experiment in a line: Peptide inhibition of XPB binding to mutant p53. On the set-up: species or system human. Conditions: data not shown. Here is the method:
as §1

The next data set addresses T4, wild type p53 (Homo sapiens, UniProt P04637).
T4 construct: made in house; host or cells: Escherichia coli
The experiment in a line: Binding of XPB proteins with deletion mutations to wild type p53. Conditions: for binding of in vitro-translated XPB deletion mutant to GST-p53-WT: compared with wild-type XPB. As for the experimental part: FIGS. 3A, 3B and 3C. p53 binds to XPB helicase motifs Ia, II and III. […] Twenty percent of the original input was loaded in parallel as the references (lanes 1-3). B. In vitro-translated wild-type p53 protein was mixed with GSH-beads loaded with 4 μg of GST (lane 2), 2 μg of GST-XPB (WT) (lane 3), or 2 μg of GST-XPB (truncated XPB with 80-480 residues) (lane 4). Bound proteins were analyzed on SDS/PAGE. The original input (100%) was included as a reference (lane 1). C. Schematic representation of the full-length or the truncated XPB proteins used in binding assays. Black boxes in the bars are the putative helicase motifs conserved across the helicase superfamily. The small open bar from residues 354 to 496 covers the region which binds p53, with the closed bar in the right side covering motif III representing the higher affinity binding site. Helicase motif 1, residues 337-351; motif Ia, residues 361-374; motif II, residues 434-446; motif III, residues 462-480; motif IV, residues 576-592; motif V, residues 601-621; motif VI, residues 630-649.
The binding assays were done in 500 μl IP buffer (50 mM Tris-HCl, pH8.0/120 mM NaCl/0.5% Nonidet P-40) containing the ^35S-labeled, in vitro translated proteins and GST fusion proteins loaded on GSH-beads at RT for 60 min. After washing five times with IP buffer, the bound proteins were released by boiling the beads in Laemmli buffer for 5 min, separated by SDS-PAGE, and visualized by fluolorography, as described in Wang, X. W., et al. (1994) Proc. Natl. Acad. Sci., USA 91:2230-2234.
XPB contains 7 putative helicase motifs (FIG. 3C, black bars) which are conserved among the helicase superfamily and are indispensable for NER activity. […] The XPB mutants were produced a s described in Example 1, herein, and the binding studies with wild type p53 were carried out as described in Example 2, herein.

“Also recorded” adds a separate entry of the source.

Take “99: non relevant peptide from HBV, residues 100-115 of HBX [compound 99, reference compound]”: the “competition of in vitro-translated XPB from GST-p53” value (from here on “competition”) in the data set with binding of p53 to XPB is recorded as “failed to do so; also recorded: enhance binding”.

With “249^Ser: p53 mutant 249Ser, microinjected as CMV expression vector”, in data set [1], the “effect of coinjected mutant p53 on induction of apoptosis by wt p53” value was “completely abolished”, the “% apoptotic cells” value was 0(34) %, the “p53 localization (% cells) both” value is given as 17 % cells and the “p53 localization (% cells) cytoplasmic” value was found to be 77 % cells. Also, the “p53 localization (% cells) nuclei” value in data set [1] was determined as 6 % cells.

On to “273^His: p53 mutated at codon 273 (Arg→His); expression vector or baculovirus-produced protein”, for which, in data set [2], the “inhibition of XPD helicase activity of BTF2-TFIIH” value is “No inhibition”. The “inhibition of XPB helicase activity of BTF2-TFIIH” value in data set [3] is reported as “No inhibition”. In data set [1], the “effect of coinjected mutant p53 on induction of apoptosis by wt p53” value is listed as “completely abolished”, the “% apoptotic cells” value was 7(30) %, the “p53 localization (% cells) both” value is on record as 73 % cells and the “p53 localization (% cells) cytoplasmic” value amounted to 0 % cells. Besides, the “p53 localization (% cells) nuclei” value in data set [1] amounted to 27 % cells. Further, the “% apoptotic cells” value in data set [1] (listed as 273]^His) was “significantly reduced”.

With “361 to 393: fragment of the c-terminus of wt p53, amino acid residues 361 to 393”, the “induction of apoptosis by fragments of the c-terminus of wt p53” value in data set [1] (cells and delivery not stated for the fragments) was “can also induce apoptosis”.

Take “479: residues 479 to 493 of XPB (DLNFLIGPKLYEANW) [compound 479, reference compound]”: the “competition” value with binding of p53 to XPB is given as “failed to do so; also recorded: enhance binding”.

Turning to “Peptide #464: amino acid residues 464 to 478 of XPB, helicase motif III region (LGLTATLVREDDKIV)”, the “competition” value in the data set with binding of p53 to XPB (listed as #464) is “efficiently competed; also recorded: capable of inhibiting the binding”. In addition, the “inhibition of XPB binding to mutant p53” value in data set [4] is listed as “did not inhibit”.

For “Peptide #p53cp: amino acid residues 367-387 of human wild type p53 (SHLKSKKGQSTSRHKKLMFKT)”, in the data set with binding of p53 to XPB, the “competition” value is recorded as “competed; also recorded: capable of inhibiting the binding”.

B1: GST-XPB-80/480: GST fused to amino acids 80 to 480 of XPB (protein, UniProt P19447 80-480, looked up, fragment)
chain: PDGHIFLEAFSPVYKYAQDFLVAIAEPVCRPTHVHEYKLTAYSLYAAVSVGLQTSDITEYLRKLSKTGVPDGIMQFIKLCTVSYGKVKLVLKHNRYFVESCHPDVIQHLLQDPVIRECRLRNSEGEATELITETFTSKSAISKTAESSGGPSTSRVTDPQGKSDIPMDLFDFYEQMDKDEEEEEETQTVSFEVKQEMIEELQKRCIHLEYPLLAEYDFRNDSVNPDINIDLKPTAVLRPYQEKSLRKMFGNGRARSGVIVLPCGAGKSLVGVTAACTVRKRCLVLGNSAVSVEQWKAQFKMWSTIDDSQICRFTSDAKDKPIGCSVAISTYSMLGHTTKRSWEAERVMEWLKTQEWGLMILDEVHTIPAKMFRRVLTIVQAHCKLGLTATLVREDDKIVDL
modifications: GST fusion
notes: GST fused to amino acids 80 to 480 of XPB
With B1, in the data set with wild type p53 (GSH-beads loaded with GST-XPB protein), the “binding of in vitro-translated human wild-type p53 to GST-XPB protein” value is “significantly less binding”.

B2: ΔC354: XPB deletion mutant terminating at residue 354 (helicase motifs Ia to VI deleted) (protein)
chain: MGKRDRADRDKKKSRKRHYEDEEDDEEDAPGNDPQEAVPSAAGKQVDESGTKVDEYGAKDYRLQMPLKDDHTSRPLWVAPDGHIFLEAFSPVYKYAQDFLVAIAEPVCRPTHVHEYKLTAYSLYAAVSVGLQTSDITEYLRKLSKTGVPDGIMQFIKLCTVSYGKVKLVLKHNRYFVESCHPDVIQHLLQDPVIRECRLRNSEGEATELITETFTSKSAISKTAESSGGPSTSRVTDPQGKSDIPMDLFDFYEQMDKDEEEEEETQTVSFEVKQEMIEELQKRCIHLEYPLLAEYDFRNDSVNPDINIDLKPTAVLRPYQEKSLRKMFGNGRARSGVIVLPCGAGKSLVGVTAA
Regarding B2, the “binding of in vitro-translated XPB deletion mutant to GST-p53-WT” value with wild type p53 is “completely abolished the binding”.

B3: ΔC496: XPB deletion mutant terminating at residue 496 (helicase motifs IV, V and VI deleted) (protein)
chain: MGKRDRADRDKKKSRKRHYEDEEDDEEDAPGNDPQEAVPSAAGKQVDESGTKVDEYGAKDYRLQMPLKDDHTSRPLWVAPDGHIFLEAFSPVYKYAQDFLVAIAEPVCRPTHVHEYKLTAYSLYAAVSVGLQTSDITEYLRKLSKTGVPDGIMQFIKLCTVSYGKVKLVLKHNRYFVESCHPDVIQHLLQDPVIRECRLRNSEGEATELITETFTSKSAISKTAESSGGPSTSRVTDPQGKSDIPMDLFDFYEQMDKDEEEEEETQTVSFEVKQEMIEELQKRCIHLEYPLLAEYDFRNDSVNPDINIDLKPTAVLRPYQEKSLRKMFGNGRARSGVIVLPCGAGKSLVGVTAACTVRKRCLVLGNSAVSVEQWKAQFKMWSTIDDSQICRFTSDAKDKPIGCSVAISTYSMLGHTTKRSWEAERVMEWLKTQEWGLMILDEVHTIPAKMFRRVLTIVQAHCKLGLTATLVREDDKIVDLNFLIGPKLYEANWMEL
As to B3, in the data set with wild type p53, the “binding of in vitro-translated XPB deletion mutant to GST-p53-WT” value is “did not alter the binding”.
